Assay results taken from the supplement of paper PMC10307832.

Columns and labels:
Experiment in all cases: relative viability (nuclei count vs DMSO), 5 days (fraction); higher = more cells survive
[1] = compound: Nc1nc(Nc2ccc3c(c2)CC[C@@H](N2CCCC2)CC3)nn1-c1cc2c(nn1)-c1ccccc1CCC2 [Bemcentinib] + Cc1nc(NC(=O)N2CCC[C@H]2C(N)=O)sc1-c1ccnc(C(C)(C)C(F)(F)F)c1 [Alpelisib] (partner 2 µM)
Method in brief: (§1)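 Lung cancer cell lines, seeded in 1536-well plates, were treated the following day by pin tool with a single drug or with five library-drug doses (not always all listed) in √10 steps on top of a fixed anchor-drug dose. Cells were fixed and nuclei stained in one step after 5 days, and nuclei were counted. Relative viability is the nuclei count for treated wells divided by that for vehicle wells, reported as medians of duplicate plates.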

[2] = compound: Nc1nc(Nc2ccc3c(c2)CC[C@@H](N2CCCC2)CC3)nn1-c1cc2c(nn1)-c1ccccc1CCC2 [Bemcentinib] + C[C@@H](Oc1cc(-c2cnn(C3CCNCC3)c2)cnc1N)c1c(Cl)ccc(F)c1Cl [Crizotinib] (partner 1 µM)
Method in brief: as §1

[3] = compound: Nc1nc(Nc2ccc3c(c2)CC[C@@H](N2CCCC2)CC3)nn1-c1cc2c(nn1)-c1ccccc1CCC2 [Bemcentinib] + COc1cc2c(Oc3ccc(NC(=O)C4(C(=O)Nc5ccc(F)cc5)CC4)cc3F)ccnc2cc1OCCCN1CCOCC1 [Foretinib] (partner 0.25 µM)
Method in brief: as §1

[4] = compound: Nc1nc(Nc2ccc3c(c2)CC[C@@H](N2CCCC2)CC3)nn1-c1cc2c(nn1)-c1ccccc1CCC2 [Bemcentinib] + COc1cccc2cc(-c3nc([C@H]4CC[C@H](C(=O)O)CC4)n4ncnc(N)c34)[nH]c12 [OSI-027] (partner 0.5 µM)
Method in brief: as §1

Row | Cell Line | relative viability ([1]; first compound 0.04 µM) | relative viability ([1]; first compound 0.1265 µM) | relative viability ([1]; first compound 0.4 µM) | relative viability ([1]; first compound 1.265 µM) | relative viability ([1]; first compound 4 µM) | relative viability ([2]; first compound 0.04 µM) | relative viability ([2]; first compound 0.1265 µM) | relative viability ([2]; first compound 0.4 µM) | relative viability ([2]; first compound 1.265 µM) | relative viability ([2]; first compound 4 µM) | relative viability ([3]; first compound 0.04 µM) | relative viability ([3]; first compound 0.1265 µM) | relative viability ([3]; first compound 0.4 µM) | relative viability ([3]; first compound 1.265 µM) | relative viability ([3]; first compound 4 µM) | relative viability ([4]; first compound 0.04 µM) | relative viability ([4]; first compound 0.1265 µM) | relative viability ([4]; first compound 0.4 µM) | relative viability ([4]; first compound 1.265 µM) | relative viability ([4]; first compound 4 µM)
1 | NCI-H2085 | 0.905 | 1.08 | 1.02 | 0.983 | 0.967 | 0.836 | 0.802 | 0.753 | 0.803 | 0.919 | 1.08 | 1.11 | 0.915 | 1.01 | 0.889 | 0.722 | 0.945 | 0.764 | 0.686 | 0.752
2 | NCI-H2087 | 0.886 | 1.43 | 1.09 | 0.949 | 1.13 | 0.827 | 0.982 | 0.942 | 0.999 | 1.05 | 1.08 | 1.32 | 1.14 | 1.21 | 0.937 | 0.495 | 0.687 | 0.589 | 0.544 | 0.571
3 | NCI-H2126 | 0.799 | 0.772 | 0.669 | 0.768 | 0.786 | 1.05 | 1.1 | 1.01 | 1.03 | 1.02 | 1.25 | 1.43 | 1.37 | 1.13 | 1.23 | 0.679 | 0.692 | 0.756 | 0.688 | 0.683
4 | NCI-H2170 | 0.844 | 0.766 | 0.842 | 1.01 | 0.882 | 1.36 | 1.36 | 1.21 | 1.38 | 1.31 | 0.971 | 1.16 | 1.02 | 1.03 | 0.993 | 0.739 | 0.743 | 0.76 | 0.729 | 0.807
5 | NCI-H2228 |  | 0.636 | 0.881 | 0.809 | 0.959 |  | 0.551 | 0.599 | 0.467 | 0.451 | 0.516 | 0.931 | 0.994 | 0.908 | 0.776 | 0.186 | 0.599 | 0.745 | 0.575 | 0.775
6 | NCI-H2347 | 1.14 | 1.08 | 1.07 | 1.1 | 0.974 | 0.783 | 1.01 | 0.612 | 0.669 | 0.627 | 0.831 | 0.847 | 0.891 | 0.834 | 0.763 | 0.413 | 0.454 | 0.386 | 0.429 | 0.422
7 | NCI-H2405 | 0.728 | 0.732 | 0.847 | 0.756 | 0.72 | 0.826 | 0.922 | 0.87 | 0.853 | 0.914 | 1.05 | 1.02 | 1.03 | 1.12 | 1.04 | 0.665 | 0.64 | 0.62 | 0.707 | 0.692
8 | NCI-H3122 | 0.447 | 0.825 | 0.829 | 0.819 | 0.82 | 0.257 | 0.157 | 0.262 | 0.31 | 0.293 |  | 1.06 | 0.972 | 0.943 | 0.948 |  | 1.08 | 0.978 | 1.11 | 0.983
